{"source": "patent US20210255193A1", "about": "“LYSINE REACTIVE PROBES AND USES THEREOF” (The Scripps Research Institute, priority 2017, published 2021)", "assay_in_all_cases": "competitive isoTOP-ABPP", "format_in_all_cases": "binding", "key": {"SPAST Spastin": {"target": "T1, SPAST Spastin (Homo sapiens, UniProt Q9UBP0)", "T1 construct": "endogenous in cells; host or cells: MDA-MB-231 lysate", "T1 sequence (Q9UBP0 1-616)": "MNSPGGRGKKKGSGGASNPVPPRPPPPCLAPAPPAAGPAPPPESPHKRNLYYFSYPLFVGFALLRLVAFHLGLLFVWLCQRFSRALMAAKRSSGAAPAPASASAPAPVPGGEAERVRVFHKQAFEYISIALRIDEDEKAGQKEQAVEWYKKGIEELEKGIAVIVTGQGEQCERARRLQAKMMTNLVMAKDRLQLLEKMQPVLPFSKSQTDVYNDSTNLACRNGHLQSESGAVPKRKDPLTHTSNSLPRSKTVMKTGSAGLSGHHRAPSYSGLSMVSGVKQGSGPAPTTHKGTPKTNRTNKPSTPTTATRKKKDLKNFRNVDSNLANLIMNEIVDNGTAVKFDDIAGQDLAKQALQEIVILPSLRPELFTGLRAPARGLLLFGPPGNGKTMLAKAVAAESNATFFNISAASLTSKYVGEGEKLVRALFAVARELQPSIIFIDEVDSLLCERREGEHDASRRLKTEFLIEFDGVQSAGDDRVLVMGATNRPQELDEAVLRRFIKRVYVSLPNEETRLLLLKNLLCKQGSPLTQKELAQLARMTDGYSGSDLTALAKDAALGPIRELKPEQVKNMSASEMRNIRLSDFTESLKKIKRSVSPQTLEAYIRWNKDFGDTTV", "settings": "100 uM_231_sol_in vitro", "method_in_brief": "(§1)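 Competition format: fragment (50 μM activated ester, 100 μM guanidinylating agent) versus vehicle in lysate, then lysine probe STP-alkyne at 0.1 mM for 1 h. Quantitation by light/heavy TEV-tag MS1 peak areas, reported as R.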"}, "[1]": {"target": "T2, ERO1L ERO1-like protein alpha (Homo sapiens, UniProt Q96HE7)", "T2 construct": "isoTOP-ABPP experiments performed in cell lysates (in vitro); endogenous in cells; host or cells: soluble proteome of human cancer cell lines (MDA-MB-231; Ramos and Jurkat also prepared)", "T2 sequence (Q96HE7 24-468)": "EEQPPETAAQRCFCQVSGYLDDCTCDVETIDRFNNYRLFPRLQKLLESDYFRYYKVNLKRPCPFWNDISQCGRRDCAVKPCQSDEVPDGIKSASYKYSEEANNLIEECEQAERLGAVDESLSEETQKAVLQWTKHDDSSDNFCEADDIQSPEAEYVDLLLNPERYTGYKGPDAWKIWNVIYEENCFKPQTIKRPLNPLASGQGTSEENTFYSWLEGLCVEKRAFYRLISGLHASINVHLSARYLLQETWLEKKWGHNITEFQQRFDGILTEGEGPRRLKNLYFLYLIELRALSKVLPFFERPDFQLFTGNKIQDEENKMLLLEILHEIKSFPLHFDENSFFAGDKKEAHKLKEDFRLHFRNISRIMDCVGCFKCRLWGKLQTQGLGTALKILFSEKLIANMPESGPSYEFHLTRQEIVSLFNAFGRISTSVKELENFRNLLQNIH", "settings": "100 uM_231_sol_in vitro; possible other lysine Q86YB8_K412", "method_in_brief": "as §1"}, "[2]": {"target": "T3, ATP6V1F V-type proton ATPase subunit F (Homo sapiens, UniProt Q16864)", "T3 construct": "isoTOP-ABPP experiments performed in cell lysates (in vitro); endogenous in cells; host or cells: soluble proteome of human cancer cell lines (MDA-MB-231; Ramos and Jurkat also prepared)", "T3 sequence (Q16864 whole entry)": "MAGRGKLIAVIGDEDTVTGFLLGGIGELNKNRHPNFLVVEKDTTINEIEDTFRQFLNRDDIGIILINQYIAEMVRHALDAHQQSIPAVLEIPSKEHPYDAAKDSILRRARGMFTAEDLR", "settings": "100 uM_231_sol_in vitro", "method_in_brief": "as §1"}}, "data": [{"compound": "CC(C)(C)OC(=O)N=C(NC(=O)OC(C)(C)C)n1cccn1", "note": "[fragment 50, reference compound]", "values": [{"measurement": "isoTOP-ABPP ratio, lysine Q9UBP0_K180", "setting": "SPAST Spastin", "result": 2.0}, {"measurement": "isoTOP-ABPP ratio, lysine Q96HE7_K413", "setting": "[1]", "result": 1.4}, {"measurement": "isoTOP-ABPP ratio, lysine Q16864_K6", "setting": "[2]", "result": 1.4}]}]}
